The source of these data is US20250188079A1, “INHIBITING CYCLIC AMP-RESPONSIVE ELEMENT-BINDING PROTEIN (CREB)” (Forma Therapeutics, Inc., priority 2019, published 2025).

CBP, sequence (Q92793 1085-1192): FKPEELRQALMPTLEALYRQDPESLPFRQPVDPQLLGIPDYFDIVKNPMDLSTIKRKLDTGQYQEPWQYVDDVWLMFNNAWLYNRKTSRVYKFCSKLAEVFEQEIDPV

This experiment addresses CBP (Homo sapiens (Human), UniProt Q92793). As to the kind of experiment: HTRF biochemical assay for CBP activity (TR-FRET, bromodomain). It is filed as binding. The conditions noted are these: geometric mean, 10-point 3-fold dilution 33 μM to 1.7 nM, read-out: BROMO IC50 TRF TB CBP (μM gmean). The gist of the method:
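IC50 derives from a 4-parameter logistic fit of % inhibition, calculated from the 520/490 nm TR-FRET ratio against DMSO and no-enzyme controls. Final compound levels spanned 33 μM to 1.7 nM (10 points, 3-fold), with CBP and peptide ligand in Hepes pH 7.5/GSH/BGG/BSA/Triton buffer, incubated at room temperature for varying times.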
For orientation: Time-resolved FRET reads energy transfer from a long-lived donor to a nearby acceptor.
As a reminder, the IC50 is the concentration that gives 50% inhibition. For the molecule `COC(=O)N1CCc2ccc3c(nc([C@@H]4CC[C@H](C(=O)O)C4)n3[C@H](C)Cc3ccccc3C)c2C1` [Compound 329], the IC50 lay within 0.1 to 1 µM. The figure for `COC(=O)N1CCc2ccc3c(nc([C@@H]4CCC[C@@H](C(=O)O)C4)n3C(C)Cc3ccccc3)c2C1` (stereo in doubt) [Compound 298, (1R,3R)-3-[8-(methoxycarbonyl)-3-[(2R)-1-phenylpropan-2-yl]-3H,6H,7H,8H,9H-imidazo[4,5-h]isoquinolin-2-yl]cyclohexane-1-carboxylic acid] is 0.1 to 1 µM; for `COC(=O)N1CCc2ccc3c(nc([C@H]4CC[C@H](C(=O)O)CC4)n3[C@@H](C)Cc3cccc(C)c3)c2C1` [Compound 100] it is 0.001 to 0.01 µM; for `COC(=O)N1CCc2ccc3c(nc(C4CCCCC4)n3C[C@H](C(=O)O)c3cc(F)c(C)cc3OC)c2C1` (single isomer, unassigned) [Compound 27] it is 0.001 to 0.01 µM. The figure for `COC(=O)N1CCc2cc(C(=O)O)c3c(nc(C4CCCCC4)n3CCc3ccccc3)c2C1` [Compound 181] is 0.01 to 0.1 µM. With `COC(=O)N1CCc2ccc3c(nc(C4CCCC4)n3C[C@H](C(=O)O)c3ccccc3)c2C1` [Compound 55] the figure was 0.001 to 0.01 µM. In the case of `COC(=O)N1CCc2ccc3c(nc(N4CCCCC4)n3C[C@@H](CC(=O)O)c3ccc(F)c(F)c3)c2C1` [Compound 25], the IC50 lay in the range of 0.001 to 0.01 µM.

Consider `COC(=O)N1CCc2ccc3c(nc([C@H]4CC[C@@](C)(C(=O)O)CC4)n3[C@@H](CO)Cc3ccccc3)c2C1` [Compound 341], for which the IC50 fell in the range of 0.1 to 1 µM. With `COC(=O)N1CCc2ccc3c(nc([C@H]4CC[C@H](C(=O)O)CC4)n3[C@H](C)C[C@H]3CC[C@H](OC)CC3)c2C1` [Compound 287] the figure was 0.01 to 0.1 µM; with `COC(=O)N1CCc2ccc3c(nc(N4CCN(C(=O)C5COC5)CC4)n3[C@@H](C)Cc3ccccc3)c2C1` [Compound 337], 0.1 to 1 µM; with `COC(=O)N1CCc2ccc3c(nc([C@H]4CC[C@H](C(=O)O)CC4)n3[C@@H](C)C(F)(F)c3ccccc3)c2C1` [Compound 338], 0.1 to 1 µM.

Take `COC(=O)N1CCc2ccc3c(nc([C@@H]4CCC[C@@H](C(=O)O)C4)n3[C@@H](C)Cc3ccccc3C)c2C1` (single isomer, unassigned) [Compound 17]: the 50% inhibitory concentration (IC50) lay within 0.001 to 0.01 µM. For `COC(=O)N1CCc2ccc3c(nc([C@H]4CC[C@H](C(=O)O)CC4)n3CCn3cc(Cl)cn3)c2C1` [Compound 236], the IC50 was 0.01 to 0.1 µM. The figure for `COC(=O)N1CCc2ccc3c(nc([C@H]4CC[C@H](C(=O)O)CC4)n3[C@@H]3CCc4ccccc4C3)c2C1` [Compound 335] is 0.1 to 1 µM. For the molecule “(1S,3S)-3-[3-[(2S)-2-(3,4-difluorophenyl)propyl]-8-(methoxycarbonyl)-3H,6H,7H,8H,9H-imidazo[4,5-h]isoquinolin-2-yl]cyclohexane-1-carboxylic acid [Compound 29]”, the IC50 lay in the range of 0.001 to 0.01 µM. With `COC(=O)N1CCc2ccc3c(nc(C4CCCCC4)n3CC[C@@H]3CCCC[C@@H]3C(=O)O)c2C1` [Compound 219] the figure was 0.01 to 0.1 µM; with `COC(=O)N1CCc2ccc3c(nc(C4CCCCC4)n3C[C@H](CC(=O)O)c3cc(F)cc(OC)c3)c2C1` [Compound 36], 0.001 to 0.01 µM; with `COC(=O)N1CCc2ccc3c(nc([C@H]4CC[C@H](C(=O)O)CC4)n3[C@@H](C)Cc3ccccc3Cl)c2C1` [Compound 42], 0.001 to 0.01 µM. With `COC(=O)N1CCc2ccc3c(nc(C4CCCCC4)n3CCc3ccc(OC)c(C(=O)O)c3)c2C1` [Compound 242] the figure was 0.01 to 0.1 µM; with `COC(=O)N1Cc2c(ccc3c2nc(C2CCCCC2)n3CCc2ccccc2)CC1C` (stereo not drawn) [Compound 238], 0.01 to 0.1 µM. Take `COC(=O)N1CCc2ccc3c(nc(N4CCC(C(=O)O)CC4)n3[C@@H](C)Cc3ccccc3)c2C1` (single isomer, unassigned) [Compound 5]: the IC50 lay within 0.001 to 0.01 µM. The figure for `COC(=O)N1CCc2ccc3c(nc(N4CCC(C(=O)O)CC4)n3[C@@H](C)Cc3ccccc3Cl)c2C1` (single isomer, unassigned) [Compound 14] is 0.001 to 0.01 µM. With `COC(=O)N1CCc2ccc3c(nc([C@H]4CC[C@H](C(=O)O)CC4)n3[C@@H](CO)Cc3ccc(F)c(F)c3)c2C1` [Compound 74] the figure was 0.001 to 0.01 µM; with `COC(=O)N1CCc2ccc3c(nc([C@H]4CCC[C@H](C(=O)O)C4)n3Cc3cccc(Cl)n3)c2C1` [Compound 225], 0.01 to 0.1 µM. The figure for `COC(=O)N1CCc2ccc3c(nc([C@H]4CC[C@H](C(=O)O)CC4)n3Cc3ccc(OC)c(F)c3)c2C1` [Compound 94] is 0.001 to 0.01 µM; for `COC(=O)N1CCc2ccc3c(nc([C@H]4CCC[C@H](C(=O)O)C4)n3[C@@H](C)Cc3ccccc3C)c2C1` (single isomer, unassigned) [Compound 18] it is 0.001 to 0.01 µM. For `COC(=O)N1CCc2ccc3c(nc(C4CCC(C(=O)O)CC4)n3CCc3ccccc3)c2C1` (stereo not drawn) [Compound 84], the IC50 lay in the range of 0.001 to 0.01 µM. The figure for `COC(=O)N1CCc2ccc3c(nc(C4CCCCC4)n3C[C@@H](CC(=O)O)c3ccc(F)c(F)c3)c2C1` [Compound 4, (3S)-4-[2-cyclohexyl-8-(methoxycarbonyl)-3H,6H,7H,8H,9H-imidazo[4,5-h]isoquinolin-3-yl]-3-(3,4-difluorophenyl)butanoic acid] is 0.001 to 0.01 µM; for `COC(=O)N1CCc2ccc3c(nc(C4CCCCC4)n3C[C@H](C(=O)O)c3cccc(F)c3F)c2C1` [Compound 104] it is 0.001 to 0.01 µM. The figure for `COC(=O)N1CCc2ccc3c(nc([C@H]4CCCOC4)n3C[C@H](C(=O)O)c3ccccc3)c2C1` [Compound 89] is 0.001 to 0.01 µM. The figure for `COC(=O)N1CCc2ccc3c(nc([C@H]4CC[C@H](C(=O)O)CC4)n3CCc3ccc(OC(F)F)cc3)c2C1` [Compound 155] is 0.001 to 0.01 µM; for `COC(=O)N1CCc2ccc3c(nc(C4CCCCC4)n3C[C@H](C(=O)O)c3ccccc3)c2C1` [Compound 38] it is 0.001 to 0.01 µM. Turning to `COC(=O)N1CCc2ccc3c(nc(C4CCCCC4)n3C[C@@H](CC(=O)O)c3ccccc3C)c2C1` [Compound 98], the IC50 lay in the range of 0.001 to 0.01 µM. The figure for `COC(=O)N1CCc2ccc3c(nc(C4CCCCC4)n3CC[C@H]3CCCC[C@@H]3C(=O)O)c2C1` [Compound 252] is 0.01 to 0.1 µM.

Consider `COC(=O)N1CCc2ccc3c(nc([C@H]4CCC[C@H](C(=O)O)C4)n3C[C@H]3CC[C@@H](OC)CC3)c2C1` [Compound 245], for which the IC50 was in the range of 0.01 to 0.1 µM.

Consider `COC(=O)N1CCc2ccc3c(nc([C@H]4CC[C@@H](S(N)(=O)=O)CC4)n3[C@H](C)Cc3ccccc3)c2C1` [Compound 310], for which the IC50 lay in the range of 0.1 to 1 µM. Consider `COC(=O)N1CCc2ccc3c(nc(N4CCC(C(=O)O)CC4)n3[C@H](C)Cc3cc(F)cc(OC)c3)c2C1` (single isomer, unassigned) [Compound 16], for which the IC50 fell in the range of 0.001 to 0.01 µM. As to `COC(=O)N1CCc2ccc3c(nc(C4CCCCC4)n3C[C@@H](C(=O)O)c3cc(F)c(C)cc3OC)c2C1` (single isomer, unassigned) [Compound 278], the IC50 lay within 0.01 to 0.1 µM.

As for `COC(=O)N1Cc2c(ccc3c2nc(C2CCCCC2)n3CCc2ccccc2)C[C@H]1C` [Compound 232], the IC50 was 0.01 to 0.1 µM. With `COC(=O)N1CCc2ccc3c(nc(N4CCC[C@H](C(=O)O)C4)n3C[C@H](C)c3ccccc3)c2C1` [Compound 306] the figure was 0.1 to 1 µM. The figure for `COC(=O)N1CCc2ccc3c(nc(C4CCCCC4)n3C[C@@H](C(=O)O)C3CCCCC3)c2C1` [Compound 281] is 0.01 to 0.1 µM; for `COC(=O)N1CCc2ccc3c(nc(C4CCCCC4)n3C[C@H](CC(=O)O)c3ccc(F)c(F)c3)c2C1` [Compound 70] it is 0.001 to 0.01 µM; for `COC(=O)N1CCc2ccc3c(nc([C@H]4CC[C@H](C(=O)O)CC4)n3[C@@H](C)Cc3cc(F)cc(F)c3)c2C1` (single isomer, unassigned) [Compound 3] it is 0.001 to 0.01 µM. With `COC(=O)N1CCc2ccc3c(nc([C@H]4CC[C@H](C(=O)O)CC4)n3[C@H](CO)Cc3ccc(F)c(F)c3)c2C1` [Compound 288] the figure was 0.01 to 0.1 µM; with `COC(=O)N1Cc2c(ccc3c2nc(C2CCCCC2)n3Cc2ccccc2)C[C@H]1C` [Compound 282], 0.01 to 0.1 µM; with `COC(=O)N1CCc2ccc3c(nc(C4CCCCC4)n3[C@H](C)C[C@H]3CCCC[C@H]3C(=O)O)c2C1` [Compound 239], 0.01 to 0.1 µM.

With `COC(=O)N1CCc2ccc3c(nc([C@H]4CC[C@H](C(=O)O)CC4)n3[C@H](C)[C@H](O)c3ccccc3)c2C1` [Compound 276], the IC50 was 0.01 to 0.1 µM.

Regarding `COC(=O)N1CCc2ccc3c(nc([C@H]4CC[C@H](S(N)(=O)=O)CC4)n3[C@H](C)Cc3ccccc3)c2C1` [Compound 301], the IC50 fell in the range of 0.1 to 1 µM. The figure for `COC(=O)N1CCc2ccc3c(nc(C4CCCCC4)n3C[C@@H](C(=O)O)c3ccc(F)c(OC)c3)c2C1` [Compound 190] is 0.01 to 0.1 µM. With `COC(=O)N1CCc2ccc3c(nc([C@@H]4CCC[C@@H](C(=O)O)C4)n3C(C)Cc3ccccc3)c2C1` (stereo in doubt) [Compound 99, (1R,3R)-3-[8-(methoxycarbonyl)-3-[(2S)-1-phenylpropan-2-yl]-3H,6H,7H,8H,9H-imidazo[4,5-h]isoquinolin-2-yl]cyclohexane-1-carboxylic acid], the IC50 lay in the range of 0.001 to 0.01 µM. Turning to `COC(=O)N1CCc2ccc3c(nc([C@H]4CC[C@H](C(=O)O)CC4)n3[C@@H](C)Cc3ccncc3)c2C1` [Compound 216], the IC50 was 0.01 to 0.1 µM. Regarding `COC(=O)N1CCc2ccc3c(nc(C4CCN(S(N)(=O)=O)CC4)n3[C@H](C)Cc3ccccc3)c2C1` [Compound 330], the 50% inhibitory concentration (IC50) was in the range of 0.1 to 1 µM.

With `COC(=O)N1CCc2ccc3c(nc([C@H]4CC[C@H](C(=O)O)CC4)n3CC(F)(F)c3ccccc3)c2C1` [compound 145], the IC50 was 0.001 to 0.01 µM. As for `COC(=O)N1CCc2ccc3c(nc([C@H]4CC[C@H](C(=O)O)CC4)n3[C@@H](C)Cc3ccccc3)c2C1` [Compound 192], the IC50 fell in the range of 0.01 to 0.1 µM.
